In article PMC7616174, “Development of Novel 4-Arylpyridin-2-one and 6-Arylpyrimidin-4-one Positive Allosteric Modulators of the M1 Muscarinic Acetylcholine Receptor” (ChemMedChem, 2020):
Like-named read-outs stand apart in the source and are kept apart here.

Tests used:
[1] = target: T1, M1 mAChR (Homo sapiens, UniProt P11229); test: β-arrestin 2 recruitment assay (BRET); type: cell-based; details: for αβ (functional cooperativity with ACh) / τB (intrinsic efficacy of the modulator): antilog, in parentheses; for log τB (logarithm of intrinsic efficacy of the modulator) / log αβ (logarithm of functional cooperativity between ACh and modulator): operational model; for log αβ (logarithm of functional cooperativity between ACh and modulator): pKB constrained to binding value
T1 construct: expressed in transfected cells; host or cells: parental FlpIn CHO cells (transient, PEI)
T1 sequence (P11229 1-460): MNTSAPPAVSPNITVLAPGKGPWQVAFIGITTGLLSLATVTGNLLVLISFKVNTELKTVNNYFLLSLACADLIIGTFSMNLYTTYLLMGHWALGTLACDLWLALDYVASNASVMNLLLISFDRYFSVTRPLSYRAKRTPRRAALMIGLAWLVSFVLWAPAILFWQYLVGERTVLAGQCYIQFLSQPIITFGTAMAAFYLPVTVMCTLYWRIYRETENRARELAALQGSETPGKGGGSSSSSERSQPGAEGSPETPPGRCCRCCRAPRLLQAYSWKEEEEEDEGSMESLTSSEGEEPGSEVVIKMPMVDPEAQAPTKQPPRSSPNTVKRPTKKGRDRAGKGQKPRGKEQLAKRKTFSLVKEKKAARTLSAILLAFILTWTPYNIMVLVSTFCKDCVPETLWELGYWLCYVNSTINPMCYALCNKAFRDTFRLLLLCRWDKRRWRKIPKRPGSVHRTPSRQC
From the text: The compounds were then fully characterised in two functional assays (Figure 2C and D); the Gq-coupled IP1 accumulation assay (Figure S2), which was used for the initial screening of the compounds, and a β-arrestin 2 recruitment assay (Figure S3). The operational efficacy (τB) values for the modulators and their functional cooperativity estimates with ACh (logαβACh) at both signalling pathways were estimated by applying an operational model of allosterism and agonism to the data [Eq. (3)],[16] and are listed in Table 5.
Parental FlpIn CHO cells were plated at 30000 cells/well of 96-well white Culture plates (Perkin Elmer Life Sciences) and transiently transfected with 10 ng/well of M1 Renilla luciferase (Rluc)-8 and 40 ng/well of YFP-β-arrestin 2 using linear polyethyleneimine (PEI/DNA ratio 6:1) diluted in 150 mM NaCl. DNA:PEI complexes were formed by 15 min incubation at room temperature then added to the cells and incubated at 37°C for 24 h prior to use. Cells were then washed and equilibrated in Hanks’ balanced salt solution for 1 h at 37°C. Coelenterazine h at a final concentration of 5 μM was added to each well, followed by addition of increasing concentrations of ACh in the absence or presence of increasing concentrations of each modulator. Lumines-cence and fluorescence signals were measured 5 min after agonist stimulation using the LUMIstar Omega plate reader (BMG LabTech, Offenburg, Germany). […] Data were then normalized to the maximum response to ACh.
Functional interaction studies between ACh and allosteric modulators in IP1 and β-arrestin 2 recruitment assays were analysed according to a three-parameter logistic equation or the following operational model of allosterism and agonism [Eq. (3)].[16] E=Basal+(Em−Basal)([A](KB+αβ[B])+τB[B]EC50)^n/EC50n(KB+[B])^n+([A](KB+αβ[B])+τB[B]EC50)^n where Em is the maximal possible system response, and Basal is the response in the absence of agonist. [A] and [B] are concentrations of orthosteric and allosteric ligands, respectively. KB is the equilibrium dissociation constant of allosteric ligand, and EC50 is the concentration of orthosteric agonist required to achieve half maximal response. α and β represent the magnitude of the allosteric effects on orthosteric ligand affinity and efficacy, respectively; τB is the efficacy of allosteric ligand, and n is the slope factor of the transducer function that links occupancy to response.

[2] = target: T2, hM1 mAChR (Homo sapiens, UniProt P11229); test: Whole-cell [3H]NMS equilibrium competition radioligand binding; details: [3H]NMS binding; for α (binding cooperativity with ACh): antilog
T2 construct: expressed in transfected cells
T2 sequence (P11229 1-460): T1 sequence (P11229 1-460)
Procedure: To determine the affinity (pKB) of the allosteric modulators for the allosteric site, and their binding cooperativity with ACh (log αACh) at the M1 mAChR, whole cell equilibrium competition binding studies were performed, using [^3H]NMS to label the orthosteric site.
FlpIn Chinese hamster ovary (CHO) cells stably expressing the hM1 mAChR were grown in Dulbecco’s modified Eagle’s medium (DMEM) (Invitrogen, Carlsbad, CA) supplemented with 5% foetal bovine serum (FBS) (Thermo-Trace, Melbourne, Australia) and 300 μg/mL G418 (Invitrogen, Carlsbad, CA). The cells were plated at 50,000 cells per well of 96-well white clear bottom plates (Greiner Bio-one, Kremsmünster, Austria), and were grown overnight. The following day, cells were washed twice with Phosphate Buffered Saline (PBS), and incubated with increasing concentrations of ACh (Sigma) in the absence or presence of increasing concentrations of each modulator and 0.2 nM [^3H]NMS (PerkinElmer Life Sciences) in binding buffer (20 mM HEPES, 100 mM NaCl, 10 mM MgCl2, pH 7.4) for 5 h at room temperature. Nonspecific binding was determined using atropine at the final concentration of 10 μM. The assays were terminated by rapid removal of the unbound radioligand followed by two washes with 100 μL/well ice-cold 0.9% NaCl buffer. Radioactivity was determined by addition of 100 μL/well Ultima gold (PerkinElmer Life Sciences) and counting in a MicroBeta plate reader (PerkinElmer Life Sciences).
Binding interaction studies with allosteric ligands were fitted to the following allosteric ternary complex model [Eq. (2)][15] Y=Bmax|A|/[Λ]+[KAKB/α^′[B]+KB][1+[I]/K1+[B]/KB+α[I][B]/KIKB] where Bmax is the total number of receptors, [A], [B] and [I] denote the concentrations of radioligand, allosteric modulator, and orthosteric ligand, respectively; KA, KB and KI are their respective equilibrium dissociation constants. α’ and α are the affinity cooperativity factors between the allosteric ligand and radioligand or the allosteric modulator and ACh, respectively. Values of α or α’ > 1 denote positive cooperativity, values < 1 but > 0 denote negative cooperativity, and a value of 1 indicates neutral coopera-tivity.

[3] = allosteric ternary complex model, mean ± SEM, read-out: pKB (negative logarithm of the allosteric modulator equilibrium dissociation constant) (converted)

| Compound | αβ (functional cooperativity with ACh) [1] | τB (intrinsic efficacy of the modulator) [1] | log τB (logarithm of intrinsic efficacy of the modulator) [1] | log αβ (logarithm of functional cooperativity between ACh and modulator) [1] | Kb ([2]; KB, antilog of pKB, in parentheses) [µM] | α (binding cooperativity with ACh) ([2]; in parentheses) | log αACh (logarithm of binding cooperativity between ACh and modulator) ([2]; mean ± SEM) | Kb ([2]; pKB (negative logarithm of the allosteric modulator equilibrium dissociation constant), allosteric ternary complex model, mean ± SEM) [µM] | Kb [2, 3] [µM] |
| --- | --- | --- | --- | --- | --- | --- | --- | --- | --- |
| Cn1cc(-c2ccc(COc3ccccc3-c3cc(=O)n(C4CCCCC4O)cn3)cc2)cn1 (stereo not shown) [Compound 2, 3-(2-Hydroxycyclohexyl)-6-(2-((4-(1-methyl-1H-pyrazol-4-yl)benzyl)oxy)phenyl)pyrimidin-4(3H)-one] | 63 | 2 | 0.37±0.11 | 1.80±0.35 | 3 | 240 | 2.38±0.13 | 3.16 | – |
| Cn1cc(-c2ccc(COc3ncccc3-c3ccn(C4CCCCC4O)c(=O)c3)cc2)cn1 (stereo not shown) [Compound 7f, 1’-(2-Hydroxycyclohexyl)-2-((4-(1-methyl-1H-pyrazol-4-yl)benzyl)oxy)-[3,4’-bipyridin]-2’(1’H)-one] | 81 | 2 | 0.23±0.08 | 1.91±0.10 | – | 240 | 2.38±0.39 | – | 38 |
| CN(C)C(=O)Cn1ccc(-c2ccccc2OCc2ccc(-c3cnn(C)c3)cc2)cc1=O [Compound 13c, N,N-Dimethyl-2-(4-(2-((4-(1-methyl-1H-pyrazol-4-yl)benzyl)oxy)phenyl)-2-oxopyridin-1(2H)-yl)acetamide] | 55 | 1 | –0.01±0.06 | 1.74±0.11 | – | 72 | 1.86±0.28 | – | 16.6 |
